# Results from patent US20240156764A1, “INHIBITION OF URACIL DNA GLYCOSYLASE IN THE OPEN CONFORMATION” (CASE WESTERN RESERVE UNIVERSITY, priority 2022, published 2024).
# Key:
# human UDG = human UDG (Homo sapiens, UniProt P13051); test: Time course of human UDG activity on uracil DNA hairpin; type: biochemical; design: Bacterially expressed and purified full-length human UDG; made in house
# Text: RFU was monitored over time. Each point on plot represents an average of three replicates. Error bar represents standard deviation from the mean. […] Each data point on the plot is the average of 3 wells (DMSO condition). Error bars represent standard deviation from the mean. […] UDG protein was not added to each reaction. […] Fluorescently labeled FAM-uDNA hairpin was monitored over the melting of the DNA hairpin. […] Each point represents an average of 4 experimental wells. Y Error bars represent the standard deviation from the mean.
# To better examine UDG inhibitor activity, we monitored human UDG activity over time.
# [1] = system: uracil removal (U:G base pair) in MCF-7 cells; test: Host-cell reactivation assay, uracil removal from reporter plasmid, MCF-7; type: cell-based, human
# Experimental: A: MCF-7 cells were seeded at 50,000 cells per well in a 12-well plate. B: HAP cells (wild type or UNG gene knockout) were seeded at 75,000 cells per well in a 6-well plate. […] After 24 hours, cells were dissociated by trypsinization and analyzed by flow cytometry using an Atune NxT flow cytometer. Gating and compensation were determined by transfection of single-color controls. Reporter expression was calculated for each dose of ATA as previously described in publications and normalized to DMSO treatment.
# Panel A: 1.25 μM and panel B: 2.5 μM. Reporter expression was calculated for each dose of ATA as described in prior publications and normalized to DMSO treatment.
# Removal of uracil in cells was measured using a reporter plasmid containing a dU:dG base pair (referred to as BFP_U), as described previously. […] The reciprocal of BFP_U reporter expression was calculated for each experimental condition. […] This creates a premature stop codon, completely abolishing fluorescence. Removal of thymidine followed by insertion of dC opposite dG restores reporter fluorescence.
# Human breast cancer MCF-7 cells were seeded at 50,000 cells per well in a 12-well plate, while HAP cells (wild type or UNG knockout) were seeded at 75,000 cells per well in a 6-well plate. […] After 24 hours, cells were dissociated by trypsinization and analyzed by flow cytometry using an Atune NxT flow cytometer. […]
# Chain of human UDG (P13051 whole entry): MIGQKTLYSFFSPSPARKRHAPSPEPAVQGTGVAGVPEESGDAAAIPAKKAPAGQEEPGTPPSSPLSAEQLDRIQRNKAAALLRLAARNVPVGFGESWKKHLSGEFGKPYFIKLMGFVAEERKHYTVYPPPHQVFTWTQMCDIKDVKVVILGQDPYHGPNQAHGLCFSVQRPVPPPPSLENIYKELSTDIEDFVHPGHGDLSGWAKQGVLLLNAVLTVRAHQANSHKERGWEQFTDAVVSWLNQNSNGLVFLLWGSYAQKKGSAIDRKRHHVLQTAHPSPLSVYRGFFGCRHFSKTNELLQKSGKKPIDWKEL
compound,measurement,setting,value
"O=C(O)C1=CC(=C(c2ccc(O)c(C(=O)O)c2)c2ccc(O)c(C(=O)O)c2)C=CC1=O [ATA, aurintricarboxylic acid]",reduction of UDG-mediated un-quenching of u-DNA hairpin,"human UDG; ATA below 250 nM, fixed DNA substrate, 5-hour time course",unable to significantly compete
same,UDG activity over time,"human UDG; ATA fixed dose of 500 nM, range of uracil DNA hairpin concentrations",persistently diminished UDG activity
same,uracil removal in MCF-7 cells,"[1]; ATA 2.5 μM, 24 hr",significantly inhibited uracil removal
same,uracil removal in MCF-7 cells at increasing concentrations,[1]; ATA up to 10 μM vs 2.5 μM,not statistically different from the 2.5 μM dose
